The values below come from patent US9040519B2, “Fused tetracyclic pyrido [4,3-B] indole and pyrido [3,4-B] indole derivatives and methods of use” (Medivation Technologies, Inc., priority 2010, dated 2015).

Test [1] deals with T1, human recombinant serotonin (5-Hydroxytryptamine) 5-HT2A receptor (Homo sapiens, UniProt P28223).
T1 construct: expressed in transfected cells; host or cells: CHO-K1
Nature of the test: Serotonin 5-HT2A radioligand binding ([3H]Ketanserin). The following applies: compound at 0.1 μM; CHO K1 cells; read-out: Percentage inhibition of ligand binding, Serotonin 5-HT2A. The procedure:
To evaluate in radioligand binding assays the activity of compounds of the invention, human recombinant serotonin (5-Hydroxytryptamine) 5-HT2A receptor expressed in Chinese hamster ovary (CHO) K1 cells (Bonhaus, D. et al, Br. J. Pharmacol. 115:622, 1995; Saucier, C. et al, J. Neurochem. 68:1998, 1997) in a 50 mM Tris-HCl buffer, pH 7.4, was used. Compounds of the invention were incubated with 0.5 nM [^3H]Ketanserin for 60 min at 25° C. Non-specific binding was estimated in the presence of 1 μM Mianserin. Receptor proteins were filtered and washed, the filters were then counted to determine [^3H]Ketanserin specifically bound. Compounds were screened at 1 μM or lower, using 1% DMSO as vehicle. Biochemical assay results are presented as the percent inhibition of specific binding in Table 4.

Test [2] addresses T2, human recombinant serotonin (5-Hydroxytryptamine) 5-HT2C receptor (Homo sapiens, UniProt P28335).
T2 construct: expressed in transfected cells; host or cells: CHO-K1
T2 sequence (P28335 33-458): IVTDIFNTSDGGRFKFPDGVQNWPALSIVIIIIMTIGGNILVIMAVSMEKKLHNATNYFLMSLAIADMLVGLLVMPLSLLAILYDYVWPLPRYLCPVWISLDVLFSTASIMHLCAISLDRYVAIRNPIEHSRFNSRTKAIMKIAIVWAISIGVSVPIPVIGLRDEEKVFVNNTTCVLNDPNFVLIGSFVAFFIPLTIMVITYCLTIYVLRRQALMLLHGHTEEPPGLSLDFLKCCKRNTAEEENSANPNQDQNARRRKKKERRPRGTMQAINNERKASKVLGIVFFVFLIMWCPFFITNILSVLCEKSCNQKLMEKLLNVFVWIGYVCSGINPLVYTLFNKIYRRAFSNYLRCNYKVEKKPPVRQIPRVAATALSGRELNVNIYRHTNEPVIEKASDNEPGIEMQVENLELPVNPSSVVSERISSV
Nature of the test: Serotonin 5-HT2C radioligand binding ([3H]Mesulergine). The following applies: compound at 0.1 μM; CHO K1 cells; read-out: Percentage inhibition of ligand binding, Serotonin 5-HT2C. The method, then:
To evaluate in radioligand binding assays the activity of compounds of the invention, human recombinant serotonin (5-Hydroxytryptamine) 5-HT2C receptor expressed in Chinese hamster ovary (CHO) K1 cells (Wolf, W. et al, J. Neurochem. 69:1449, 1997) in a modified Tris-HCl buffer (50 mM Tris-HCl, pH 7.4, 0.1% Ascorbic Acid, 10 μM Pargyline) was used. Compounds of the invention were incubated with 1 nM [^3H]Mesulergine for 60 min at 25° C. Non-specific binding was estimated in the presence of 1 μM Mianserin. Receptor proteins were filtered and washed, the filters were then counted to determine [^3H]Mesulergine specifically bound. Compounds were screened at 1 μM or lower, using 1% DMSO as vehicle. Biochemical assay results are presented as the percent inhibition of specific binding in Table 4.

In test [3] the target is T3, human recombinant adrenergic α2C receptor (Homo sapiens, UniProt P18825).
T3 construct: expressed in transfected cells; host or cells: insect Sf9 cells
T3 sequence (P18825 1-462): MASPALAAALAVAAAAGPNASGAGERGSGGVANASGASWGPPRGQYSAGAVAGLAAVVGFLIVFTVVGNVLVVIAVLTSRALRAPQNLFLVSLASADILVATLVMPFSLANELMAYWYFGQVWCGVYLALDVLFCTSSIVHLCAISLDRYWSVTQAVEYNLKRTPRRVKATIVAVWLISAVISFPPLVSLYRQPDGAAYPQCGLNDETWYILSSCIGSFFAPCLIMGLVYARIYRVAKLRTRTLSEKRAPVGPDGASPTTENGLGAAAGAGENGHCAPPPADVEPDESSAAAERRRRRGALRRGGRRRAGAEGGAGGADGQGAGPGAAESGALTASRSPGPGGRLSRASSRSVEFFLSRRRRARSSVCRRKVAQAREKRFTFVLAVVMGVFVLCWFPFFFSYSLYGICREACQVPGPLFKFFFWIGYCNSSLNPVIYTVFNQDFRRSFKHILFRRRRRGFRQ
Nature of the test: Adrenergic α2C radioligand binding ([3H]MK-912). The following applies: compound at 0.1 μM; insect Sf9 cells; read-out: Percentage inhibition of ligand binding, Adrenergic α2C. The procedure:
To evaluate in radioligand binding assays the activity of compounds of the invention, human recombinant adrenergic α2C receptor expressed in insect Sf9 cells (Uhlen, S. et al, J. Pharmacol. Exp. Ther. 271:1558, 1994) in a modified Tris-HCl buffer (50 mM Tris-HCl, pH 7.4, 12.5 mM MgCl2, 2 mM EDTA) was used. Compounds of the invention were incubated with 1 nM [^3H]MK-912 for 60 min at 25° C. Non-specific binding was estimated in the presence of 10 μM WB-4101. Receptor proteins were filtered and washed, the filters were then counted to determine [^3H]MK-912 specifically bound. Compounds were screened at 1 μM or lower, using 1% DMSO as vehicle. Biochemical assay results are presented as the percent inhibition of specific binding in Table 3.

Test [4] addresses T4, human recombinant serotonin (5-Hydroxytryptamine) 5-HT5A receptor (Homo sapiens, UniProt P47898).
T4 construct: expressed in transfected cells; host or cells: CHO-K1
Nature of the test: Serotonin 5-HT5A radioligand binding ([3H]LSD). As to conditions: compound at 0.1 μM; CHO K1 cells; read-out: Percentage inhibition of ligand binding, Serotonin 5-HT5A. The method, then:
To evaluate in radioligand binding assays the activity of compounds of the invention, human recombinant serotonin (5-Hydroxytryptamine) 5-HT5A receptor expressed in Chinese hamster ovary (CHO) K1 cells (Rees, S. et al, FEBS Lett. 355:242, 1994) in a modified Tris-HCl buffer (50 mM Tris-HCl, pH 7.4, 10 mM MgCl2, 0.5 mM EDTA) was used. Compounds of the invention were incubated with 1.7 nM [^3H]Lysergic acid diethylamide (LSD) for 60 min at 37° C. Non-specific binding was estimated in the presence of 100 μM Serotonin (5-HT). Receptor proteins were filtered and washed, the filters were counted to determine [^3H]LSD specifically bound. Compounds were screened at 1 μM or lower, using 1% DMSO as vehicle. Biochemical assay results are presented as the percent inhibition of specific binding in Table 4.

T1 sequence (P28223 whole entry): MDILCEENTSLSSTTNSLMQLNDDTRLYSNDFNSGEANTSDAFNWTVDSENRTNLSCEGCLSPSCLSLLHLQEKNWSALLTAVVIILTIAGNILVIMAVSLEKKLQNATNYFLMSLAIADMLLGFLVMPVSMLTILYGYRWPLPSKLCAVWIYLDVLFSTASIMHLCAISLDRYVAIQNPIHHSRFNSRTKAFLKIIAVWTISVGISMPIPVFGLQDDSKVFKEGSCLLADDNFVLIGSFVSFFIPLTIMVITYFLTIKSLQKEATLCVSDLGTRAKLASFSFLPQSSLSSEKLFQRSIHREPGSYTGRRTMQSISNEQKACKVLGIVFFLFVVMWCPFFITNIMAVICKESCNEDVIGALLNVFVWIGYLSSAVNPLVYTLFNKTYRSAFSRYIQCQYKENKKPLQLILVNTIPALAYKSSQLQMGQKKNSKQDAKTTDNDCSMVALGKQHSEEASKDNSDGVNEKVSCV
T4 sequence (P47898 whole entry): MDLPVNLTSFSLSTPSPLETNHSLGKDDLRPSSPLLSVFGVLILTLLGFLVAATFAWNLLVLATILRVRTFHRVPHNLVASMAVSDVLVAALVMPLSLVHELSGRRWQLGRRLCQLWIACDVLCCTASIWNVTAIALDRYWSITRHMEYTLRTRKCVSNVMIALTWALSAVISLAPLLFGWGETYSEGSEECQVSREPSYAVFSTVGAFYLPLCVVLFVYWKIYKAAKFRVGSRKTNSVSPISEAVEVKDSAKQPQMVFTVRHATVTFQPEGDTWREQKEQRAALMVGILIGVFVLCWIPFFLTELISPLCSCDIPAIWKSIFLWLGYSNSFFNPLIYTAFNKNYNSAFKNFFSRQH

Consider `Cc1ccc2c(c1)c1c3n2C(c2ccccc2)=CCC3(C)CN(C)C1` (stereo not drawn) [Compound 10, 2,3a,10-trimethyl-6-phenyl-2,3,3a,4-tetrahydro-1H-indolo[3,2,1-ij][1,6]naphthyridine], for which the inhibition at 0.1 µM in test [1] is 13%; in test [2], 17%; in test [3], 2%; in test [4], -8%.
For the compound `Cc1ccc2c(c1)c1c3n2CC(c2ccncc2)=CCC3(C)CN(C)C1` (stereo not drawn) [Compound 11, 2,3a,10-trimethyl-6-pyridin-4-yl-1,2,3,3a,4,7-hexahydro-2,7a-diaza-cyclohepta[jk]fluorene], the inhibition at 0.1 µM in test [1] came to 10%; in test [2], 7%; in test [3], 1%; in test [4] it was 9%.
In the case of `Cc1ccc2c(c1)c1c3n2C(c2ccccc2)CCC3(C)CN(C)C1` (stereo not drawn) [Compound 12, 2,3a,10-trimethyl-6-phenyl-2,3,3a,4,5,6-hexahydro-1H-indolo[3,2,1-ij][1,6]naphthyridine], the inhibition at 0.1 µM in test [1] is 12%; in test [2], 11%; in test [3], -3%; in test [4], -21%.

The term inhibition denotes the change of the read-out against control, counted positive when it falls.
